The target in this experiment is phosphomevalonate kinase (Streptococcus pneumoniae D39). As to the kind of experiment: phosphomevalonate kinase inhibition IC50 – biochemical, mevalonate pathway, coupling enzyme counter-screen, dose response (AID 549). The conditions noted are these: PMK enzyme, PK/LDH coupled NADH absorbance 340 nm.

Molecules are shown by their SMILES. The source made the active and inactive calls.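 The calls were made as follows: active = clearly stronger inhibition of phosphomevalonate kinase than of the coupling enzymes alone in a parallel counterscreen; inactive = the rest.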

Consider `CCOc1ccc(-c2nnc(SCC(=O)N3CCN(c4ccccc4)CC3)o2)cc1`, for which the result was inactive. Regarding `Cc1ccc(-c2nnn(CC(=O)N(CC(=O)NCC3CCCO3)c3ccc(F)c(Cl)c3)n2)o1` (configuration not stated), the result was inactive. Then `COCCCNC(=O)CN(C1CCCCC1)S(=O)(=O)c1ccc(C)cc1`, with “inactive”; and `CC(=O)N1CCc2cc(S(=O)(=O)NC3CCCc4ccccc43)ccc21` (configuration not stated), with “inactive”; and `Cc1noc(C)c1CSc1nnc(-c2ccncc2)n1-c1cccc(Cl)c1C`, with “inactive”.

With `CC(C)(C)c1ccccc1OCCCCCNCCO`, the result was inactive. For `C[C@]12CC[C@@H]3c4ccc(OS(=O)(=O)O)cc4CC[C@H]3[C@@H]1CCC2=O`, the outcome was inactive.

With `COCC(=O)N(C)c1nnc(-c2cnc(C)cn2)s1`, the outcome was inactive. Consider `COc1ccc(Br)cc1CNC(=O)C1CCN(S(=O)(=O)N2CCCC2)CC1`, for which the outcome was inactive. The same measure for `CCOC(=O)N1CCN(C(=O)C2CCN(S(=O)(=O)N3CCCC3)CC2)CC1`: “inactive”; for `Cc1cc(NCCCN2CCOCC2)n2nc(C)c(-c3ccc(F)cc3)c2n1`: “inactive”; for `O=C(c1cc(-c2ccco2)on1)N1CCCc2ccccc21`: “inactive”.

On to `CC(c1ccccc1)C(CC(=O)O)C(=O)NC1CCCCC1` (configuration not stated), for which the outcome was inactive. The same measure for `COCCn1c(C)cc2c(c1=O)C(c1ccccc1F)C(C#N)=C(N)O2` (configuration not stated): “inactive”; for `CC1(C(=O)NC2CCCCCCC2)CCC(=O)N1Cc1ccco1` (configuration not stated): “inactive”; for `CCOc1ccccc1C(=O)NCC(=O)OCC(=O)c1ccc2c(c1)OCCO2`: “inactive”. Then `Cc1ccc(C)c(N(CC(=O)NC2CCCC2)C(=O)CCCC(=O)Nc2ccccn2)c1`, with “inactive”. `O=C(NCc1ccc2c(c1)OCO2)c1cc2n(n1)C(C(F)(F)F)CC(c1ccc3c(c1)OCO3)N2` (configuration not stated): the result was inactive. Then `Cn1c(SCC(=O)N2CCOCC2)nnc1-c1ccc(NC(=O)c2ccccc2F)cc1`, with “inactive”. Then `O=C(CSc1nc(-c2ccccc2)cs1)N1CCN(C(=O)c2ccco2)CC1`, with “inactive”; and `NC(=O)CCN(Cc1ccccc1)S(=O)(=O)c1ccccc1`, with “inactive”; and `CC(C)OC(=O)C1C(=O)CC(C)(O)C(C(=O)OC(C)C)C1c1cccnc1` (configuration not stated), with “inactive”. For `Cc1ccc(S(=O)(=O)N2CCN(c3nc(C(C)C)c4c(c3C#N)CC(C)(C)OC4)CC2)cc1`, the outcome was inactive.

As for `O=C(c1ccc(CS(=O)(=O)Cc2ccc(Cl)cc2)o1)N1CCCC1`, the result was inactive. The same measure for `CC(C)C(C(=O)NCC1CCCO1)N(Cc1ccco1)C(=O)CNS(=O)(=O)c1ccc(F)cc1` (configuration not stated): “inactive”. As for `CCNC(=O)CN(c1ccc(C)cc1)S(=O)(=O)c1ccc(SC)cc1`, the outcome was inactive. Regarding `Cc1nnc(SCC(=O)N2CC(=O)Nc3ccccc32)n1-c1ccccc1`, the outcome was inactive. The same measure for `CCOC(=O)CSc1n[nH]c(-c2cccnc2)n1`: “inactive”. The same measure for `CCN(CC)C(=O)NC1CC2CCCC(C1)N2Cc1ccccc1` (configuration not stated): “inactive”. In the case of `CCc1ccc(OCc2nnc(SCC(=O)NCc3ccco3)o2)cc1`, the outcome was inactive. In the case of `CC(CN1CCN(C)CC1)OC(=O)c1ccc(Cl)cc1` (configuration not stated), the result was inactive. As for `COc1ccc(OC)c(NC(=O)CNC(=O)Cn2ccc3ccccc3c2=O)c1`, the result was inactive. The same measure for `Cc1cc(OCC(=O)NCCO)cc(C)c1Cl`: “inactive”; for `COCCNC(=O)C1CCCN(c2nn3c(=O)cc(C)nc3s2)C1` (configuration not stated): “inactive”; for `O=c1oc2c3c4c(cc2cc1-c1nc2ccccc2[nH]1)CCCN4CCC3`: “inactive”.

Regarding `Cn1cnnc1SCC(=O)n1c2ccccc2c2ccccc21`, the outcome was inactive. As to `COCCCNC(=O)c1ccc(N2CCCC2)c(NS(=O)(=O)c2ccc(C)cc2)c1`, the outcome was inactive. The same measure for `CC(C)CCn1nnnc1C(c1ccc(F)cc1)N1CCN(C(=O)c2ccco2)CC1` (configuration not stated): “inactive”; for `C=CCNC(=O)C1CCCN(S(C)(=O)=O)C1` (configuration not stated): “inactive”.

For the compound `O=c1c(-c2ccccc2)c(O)c2cccc3c2n1CCC3`, the outcome was inactive.

Regarding `COc1cc(-c2nnc(COc3ccc4ccccc4c3)o2)cc(OC)c1OC`, the outcome was inactive. Take `O=C(CNCC1CCCO1)Nc1ccccc1N1CCOCC1` (configuration not stated): the outcome was inactive. The same measure for `COc1ccc(OCC(=O)N2CCN(c3nnc(-c4ccccc4)c4ccccc34)CC2)cc1`: “inactive”. The same measure for `COCc1cc(=O)[nH]c(Nc2nc(C)c3ccc(C)cc3n2)n1`: “inactive”; for `COC(=O)c1cn(-c2ccccc2)nc1C(=O)OC`: “inactive”; for `COCCNC(=O)c1ccc2c(c1)NC(=O)CS2`: “inactive”.

Regarding `CCc1nn(C(C)C(=O)NC(C)CCc2ccco2)c(=O)c2cc3occc3n12` (configuration not stated), the outcome was inactive. With `Cc1csc(NC(=O)C2CCC(C)(C(=O)O)C2(C)C)n1` (configuration not stated), the outcome was inactive.

As for `CC(C)(C)NC(=O)CSc1nnc(-c2ccccn2)n1-c1ccccc1`, the outcome was inactive. With `CNC(=O)Cn1ncc2c(C)n(Cc3ccc(C)cc3)c(C)c2c1=O`, the result was inactive. As for `Cc1ccc(-n2nc3c(c2NC(=O)c2c(-c4ccccc4Cl)noc2C)CS(=O)(=O)C3)c(C)c1`, the result was inactive.

Regarding `CCN(CC)C(=O)C1CCCN(C/C(C)=C/c2ccccc2)C1` (configuration not stated), the outcome was inactive. Then `O=C(CCSc1nc(-c2ccc3c(c2)OCO3)cc(C(F)(F)F)n1)NCc1ccco1`, with “inactive”. Then `O=C(Cc1coc(-c2ccc(F)cc2)n1)N1CCOCC1`, with “inactive”. The same measure for `COc1ccc(C(=O)Nc2ccncc2)cc1OC`: “inactive”; for `Cc1oc2c(O)c(O)ccc2c(=O)c1-c1ccccc1`: “inactive”; for `C=CCSc1nnc(Cn2c(=O)sc3ccccc32)n1C`: “inactive”. Regarding `COc1cccc(CNC(=O)C2CCCN(c3nn4c(=O)cc(C)nc4s3)C2)c1` (configuration not stated), the result was inactive.

For the compound `CC(C)OC(=O)CN1C(=O)c2ccccc2C1=O`, the outcome was inactive. The same measure for `Cc1onc(-c2c(Cl)cccc2Cl)c1C(=O)Nc1ccc2c(c1)OCO2`: “inactive”; for `COC(=O)c1nonc1NCn1nnc2ccccc21`: “inactive”; for `CN(C(=O)c1cnccn1)c1nnc(-c2cccnc2)s1`: “inactive”. For the compound `Cc1ccsc1C1C(C(=O)O)c2ccccc2C(=O)N1C` (configuration not stated), the outcome was inactive. The same measure for `CCOC(=O)N1CCC(NC(=O)CCc2cn(C)c3ccccc23)CC1`: “inactive”. Regarding `COC(=O)CNc1nc(-c2ccccc2F)nc2ccccc12`, the outcome was inactive. Then `CCOC(=O)c1[nH]nc(C(=O)c2ccc(Br)cc2)c1O`, with “inactive”; and `O=C(c1n[nH]c(=O)c2ccccc12)N1CCN(C2c3ccccc3-c3ccccc32)CC1`, with “inactive”.

The values are drawn from PubChem BioAssay AID549 (SRMLSC, 2006).
